Results reported in US5278176A (Abbott Laboratories, priority 1992, dated 1994).
pKi: −log10 of the molar value. Counter-ions that a name gives are not always drawn.

Columns and labels:
insecticidal activity = conditions: U.S. Pat. No. 4,093,620; cited from earlier work
[1] = biological target: Neuronal Nicotinic Receptors; assay: Binding of [^3 H]-methylcarbamylcholine ([^3 H]-MCC) to neuronal nicotinic receptors (Table 1); design: species or system rat
Experimental: Protocols for Determination of Nicotinic Receptor Binding Potencies of Agonists
Binding of [^3 H]-methylcarbamylcholine ([^3 H]-MCC) to nicotinic receptor was accomplished using crude synaptic membrane preparations from whole rat brain (Snyder and Enna, Brain Research, 1975, 100:81). Washed membranes were stored at -80° C. prior to use. Frozen aliquots were slowly thawed and resuspended in 20 volumes of buffer (containing: 120 mM NaCl, 5 mM KCl, 2 mM MgCl2, 2 mM CaCl2 and 50 mM Tris-Cl, pH 7.4 @4° C.). After centrifuging at 20,000 g for 15 minutes, the pellets were resuspended in 30 volumes of buffer. Homogenate (containing 125-150 μg protein) was added to triplicate tubes containing concentrations of test compound and [^3 H]-MCC (3 nM) in a final volume of 500 μL. Samples were incubated for 60 minutes at 4° C., then rapidly filtered through Whatman GF/B filters presoaked in 0.5% polyethylimine using 3×4 mL of ice-cold buffer. The filters are counted in 4 mL of Ecolume® (ICN). […] Alternately, data were expressed as a percentage of the total specific binding.

[2] = tested on: anxiolytic activity (time in open arms); assay: Mouse Elevated Plus-Maze Studies; format: in vivo, CD1 mice
Experimental: FIG. 4 is a graphical representation of the effects of the compound of Example 4 (0.003-0.3 mg/kg) on the performance of CD1 mice in the Elevated-Plus Maze Study expressed as median time (seconds) spent on the open arms of the maze.
The mouse elevated plus-maze is a conflict test that probes anxiolytic activity of test compounds (Lister, Psychopharmacology, 1987, 92:180). It is based on the fact that exposure of mice to an elevated open arm leads to an avoidance response considerably stronger than that evoked by exposure to an enclosed arm.
The apparatus required to perform this test is made of plywood and consists of two open arms (17×8 cm) and two enclosed arms (17×8×15 cm) extending from a central platform (8×8 cm). It is mounted on a plywood base rising 39 cm above the floor. Mice are released on the central platform and the time spent in the open and enclosed arms is recorded during a 5 minute test period.
The compound of Example 4 (0.62-6.2 μmol/kg, IP) was administered to CD1 mice 15 minutes before the test.

[3] = tested on: retention of the avoidance response; assay: Inhibitory Avoidance Studies; format: in vivo, CD1 mice; conditions: 0.06-6.2 μmol/kg IP, 15 min before training; FIG. 2
Experimental: FIG. 2 is a graphical representation (bar graph) of the effects of the compound of Example 8 (0.001-1.0 mg/kg) on the performance of CD1 mice in Inhibitory Avoidance Studies expressed as median step-through latency time (seconds).
The inhibitory (or sometimes called passive) avoidance (IA) test is a well accepted animal model of learning/memory used to assess the activity of novel muscarinic agonists to enhance cognitive function (Wanibuchi et al., Eur. J. Pharmacol., 1990, 187:479). Animals are placed in the illuminated (12×14×11 cm) portion of a two-chambered box, from which they enter through a guillotine door to the larger (24×13.5×12 cm) dark compartment of the box. Entry to the dark compartment is accompanied by a mild (0.5 mA), brief (2 seconds) footshock. Initial latencies to cross are recorded, with an imposed 60 second ceiling. Following a 72 hour retention interval, animals are returned to the illuminated chamber, and latency to return to the dark compartment is again recorded, with a ceiling of 180 seconds. No footshock is administered on the test day.
Twelve animals were used in each group.

[4] = tested on: cholinergic receptors located in the heart; conditions: cited from earlier work
cortical receptors = conditions: cited from earlier work
[5] = background statement; cited from earlier work
parietotemporal cortex = parietotemporal cortex of humans; cited from earlier work
receptors = conditions: chronic nicotine administration; cited from earlier work
withdrawal symptoms = conditions: double-blind studies; cited from earlier work
cognitive function = conditions: acutely and chronically administered; preserved in aged animals; cited from earlier work
heart = conditions: in vivo; cited from earlier work
[6] = tested on: anger, irritability, frustration, tension, anxiety; conditions: cited from earlier work
[7] = [^3 H]-MCC (3 nM), whole rat brain membranes, 60 min at 4° C., Cheng-Prusoff from IC50

CN1C(C#N)CCC1c1cccnc1 (stereo not drawn) [5'-cyanonicotine]
insecticidal activity (insecticidal activity): insecticidal activity

CN1C[C@H](O)CC1c1cccnc1 (stereo partly drawn) [Example 1, 4'-(R)-Hydroxynicotine oxalate]
pKi [1, 7]: 7.54

CO[C@@H]1CC(c2cccnc2)N(C)C1 (stereo partly drawn) [Example 2, 4'-(R)-Methoxynicotine oxalate]
pKi [1, 7]: 7.60

CN1C[C@@H](F)CC1c1cccnc1 (stereo partly drawn) [Example 3, 4'-(S)-Fluoronicotine dioxalate]
pKi [1, 7]: 7.46

C[C@@H]1CC(c2cccnc2)N(C)C1.O=C(O)C(=O)O.O=C(O)C(=O)O (stereo partly drawn) [Example 4, 4'-(R)-Methylnicotine dioxalate]
pKi [1, 7]: 8.38
anxiolytic response (time in open arms) ([2]; 0.62-6.2 μmol/kg IP, 15 min before test, p<0.05 vs control, FIG. 4): clear anxiolytic response
anxiolytic effect compared with (-)nicotine ([2]; FIG. 4): anxiolytic effect similar to (-)nicotine

CN1C[C@@H](Cc2ccccc2)CC1c1cccnc1 (stereo partly drawn) [Example 5, 4'-(S)-Benzylnicotine dioxalate]
pKi [1, 7]: 6.87

CC[C@H]1CC(c2cccnc2)N(C)C1 (stereo partly drawn) [Example 6, 4'-(S)-Ethylnicotine dioxalate]
pKi [1, 7]: 7.28

CN1C[C@H](CF)CC1c1cccnc1.O=C(O)C(=O)O (stereo partly drawn) [Example 8, 4'-(R)-Fluoromethylnicotine oxalate]
pKi [1, 7]: 8.00
facilitation of retention of the avoidance response [3]: significantly facilitated the retention of the avoidance response

CN1CCC(CF)C1c1cccnc1 (stereo not drawn) [Example 9, 3'-Fluoromethylnicotine oxalate]
pKi [1, 7]: 6.97

CC1CCN(C)C1c1cccnc1 (stereo not drawn) [Example 10, 3'-methylnicotine dioxalate]
pKi [1, 7]: 7.64

CN1C[C@@H](C#N)CC1c1cccnc1 (stereo partly drawn) [Example 11, 4'-(S)-Cyanonicotine dioxalate]
pKi [1, 7]: 8.15

CC(=O)O[C@@H]1CC(c2cccnc2)N(C)C1 (stereo partly drawn) [Example 12, 4'-(R)-Acetyloxynicotine oxalate]
pKi [1, 7]: 6.79

CC1CN(C)C(c2cccnc2)C1C (stereo not drawn) [Example 13, 3',4'-Dimethylnicotine oxalate]
pKi [1, 7]: 6.98

CN1C[C@@H](CC#N)CC1c1cccnc1 (stereo partly drawn) [Example 16, 4'-(R)-Cyanomethylnicotine oxalate]
pKi [1, 7]: 7.28

CN1C[C@H](OS(C)(=O)=O)CC1c1cccnc1 (stereo partly drawn) [Example 19, 4'-(R)-Methanesulfonyoxynicotine oxalate]
pKi [1, 7]: 6.56

CCN1C(=O)CC2(CCN(C)CC2)C1=O [RS-86]
agonist efficacy at cardiac receptors [4]: full agonist at cardiac receptors
agonist efficacy at cortical receptors (cortical receptors): only a partial agonist at cortical receptors
potency and selectivity [5]: poor potency and lack of selectivity

COC(=O)C1=CCCN(C)C1 [arecoline]
pKi ([1]; arecoline comparator in text, unit inferred): 7.23
pharmacokinetics [5]: unfavorable pharmacokinetics

C[N+](C)(C)CCOC(N)=O [carbachol]
CNS penetration [5]: poor CNS penetration

CNC1(C)C2CCC(C2)C1(C)C (stereo not drawn) [mecamylamine]
resting cortical perfusion (parietotemporal cortex): reduces resting cortical perfusion

CN1CCC[C@H]1c1cccnc1 [nicotine]
pKi [1, 7]: 9.00
time spent in open arms of the maze ([2]; (-)nicotine 0.1 and 0.3 mmol/kg, p<0.05 vs saline, 5 min test): significant increase in the time spent by the mice in the open arms of the maze
effect on receptor affinity (receptors): without affecting affinity
up-regulation of number of receptors (receptors): 50-100%
oral bioavailability [5]: poor oral bioavailability
pharmacokinetics [5]: unfavorable pharmacokinetics
suppression/prevention of withdrawal signs and symptoms vs placebo (withdrawal symptoms): far superior to placebo in suppressing or preventing the appearance of many of the signs and symptoms of withdrawal
cognitive function (cognitive function): enhances cognitive function in rats
stimulant effects on the heart (heart): increasing cardiac workload and oxygen demand
anxiolytic properties ([6]; Pomerleau et al. 1984): anxiolytic properties
effect on anger, irritability, frustration, tension ([6]; U.S. Pat. No. 3,879,794, without general response depression, drowsiness or sedation): effective in reducing anger, irritability, frustration and feelings of tension
